Measurements as given in US12240859B2, “Turbinmicin compounds, compositions and uses thereof” (Wisconsin Alumni Research Foundation, priority 2019, dated 2025).
≈ marks a conversion by molar mass, not a printed value. Where two headings read alike, the source gives them in different places.

How the values were obtained:
C. albicans [1] = assay: In vitro MIC susceptibility testing, broth microdilution; type: cell-based, Candida albicans; conditions: Candida albicans
Method: (§1) In vitro MIC susceptibility testing. […]. Amphotericin B was used as a positive control and the MICs range were 0.25-1.5 μg/mL. Six untreated media controls were included on each plate. The plates were incubated at 33° C. for 72 h. The MICs were determined as the lowest concentration that inhibited visible growth. The MICs were read at 24, 48, and 72 hours, respectively. […]

C. auris [2] = assay: as above; type: cell-based, Candida auris; conditions: Candidozyma auris
Method: as §1

Apophysomyces elegans = assay: In vitro MIC susceptibility testing; type: cell-based
Method: as §1

Aspergillus fumigatus = assay: In vitro MIC susceptibility testing; type: cell-based
Method: as §1

[3] = system: Cynninghamella bertholletiae; assay: In vitro MIC susceptibility testing; type: cell-based
Method: as §1

Lichteimia corymbiferea = assay: In vitro MIC susceptibility testing; type: cell-based
Method: as §1

Mucor circinelloides = assay: In vitro MIC susceptibility testing; type: cell-based
Method: as §1

Rhizopus delemar = assay: In vitro MIC susceptibility testing; type: cell-based
Method: as §1

Rhizopus oryzae = assay: In vitro MIC susceptibility testing; type: cell-based; conditions: Rhizopus arrhizus
Method: as §1

Scedosporium spp. = assay: In vitro MIC susceptibility testing; type: cell-based
Method: as §1

C. auris [4] = assay: Time kill experiments; type: cell-based, Candida auris; conditions: C. auris (B11211, FIG. 6A), 1x to 16x MIC, 0-48 h
Method: (§2) FIGS. 6A-C show time-kill curves for turbinmicin against (6A) C. auris B11211, (6B) C. albicans K-1, and (6C) C. glabrata 4720.
(§3) Time Kill Experiments. Fresh Candida colonies from an overnight growth were added to normal saline and the turbidity was adjusted to a 0.6 transmittance at 530 nm to provide a standard suspension (1*10^6 CFU/mL). This suspension was diluted with RPMI 1640 medium buffered with MOPS and a standard compound stock solution to achieve a starting inoculum of approximately 10^5 CFU/ml. Each 20 mL culture (RPMI 1640 medium buffered with MOPS) was incubated at 35° C. with constant shaking, and 0.1 mL samples were withdrawn for the determination of fungal counts at 0, 2, 4, 6, 8, 24 and 48 h. Colony counts were determined by viable counts on sabouraud agar plate (SDA) after incubation for 48 h. Growth control for each organism were prepared without antifungal and run in parallel.

C. albicans [5] = assay: Time kill experiments; type: cell-based, Candida albicans; conditions: C. albicans (K-1, FIG. 6B), 1x to 16x MIC, 0-48 h
Method: as §2, §3

[6] = Solubility of turbinmicin in aqueous solvents; type: physicochemical
Text: In some embodiments, the pharmaceutical composition comprises turbinmicin and a pharmaceutically acceptable carrier comprising aqueous DMSO, e.g., DMSO in water, DMSO in 0.9% saline or DMSO in phosphate buffered saline (e.g., about 0.01 to about 0.1 molar Na/K phosphate buffer, about pH 7.4). In some embodiments the amount of DMSO in aqueous solution varies from at least about 1% by weight to about 80% by weight. […]. As turbinmicin had limited aqueous solubility, various solubilizing conditions (Table 4) were tested.

## C/C=C/C=C/C=C/C(=O)OC1C=CCC2C(=O)c3c(O)c4c5c(c3OC12)OCOC5CC1C(=O)c2cc(C)[nH]c(=O)c2C(=O)C41O (centres unmarked) [Turbinmicin, turbinmicin]
C. albicans [1]; strain 98-17
  MIC: 0.25 µg/mL (≈ 0.398 µM)
C. albicans [1]; strain 98-210
  MIC: 0.25 µg/mL (≈ 0.398 µM)
C. albicans [1]; strain 580
  MIC: 0.5 µg/mL (≈ 0.797 µM)
C. albicans [1]; strain K1 (K-1)
  MIC: 0.25 µg/mL (≈ 0.398 µM)
C. albicans [1]; strain SN250
  MIC: 0.25 µg/mL (≈ 0.398 µM)
C. auris [2]; strain B11104
  MIC: 0.5 µg/mL (≈ 0.797 µM)
C. auris [2]; strain B11203
  MIC: 0.5 µg/mL (≈ 0.797 µM)
C. auris [2]; strain B11211, resistant to amphotericin B, fluconazole, micafungin, read-out: MIC
  MIC: 0.25 µg/mL (≈ 0.398 µM)
C. auris [2]; strain B11219
  MIC: 0.25 µg/mL (≈ 0.398 µM)
C. auris [2]; strain B11220
  MIC: 0.125 µg/mL (≈ 0.199 µM)
C. auris [2]; strain B11221
  MIC: 0.5 µg/mL (≈ 0.797 µM)
C. auris [2]; strain B11785
  MIC: 0.25 µg/mL (≈ 0.398 µM)
C. auris [2]; strain B11799
  MIC: 0.5 µg/mL (≈ 0.797 µM)
C. auris [2]; strain B11801
  MIC: 0.5 µg/mL (≈ 0.797 µM)
C. auris [2]; strain B11804
  MIC: 0.5 µg/mL (≈ 0.797 µM)
Apophysomyces elegans
  MIC: 4 µg/mL (≈ 6.37 µM)
Aspergillus fumigatus; strain 293, read-out: MIC
  MIC: 0.125 µg/mL (≈ 0.199 µM)
Aspergillus fumigatus; strain F11628 (11628), Cyp51 G138C, triazole resistant
  MIC: 0.03 µg/mL (≈ 0.0478 µM)
Aspergillus fumigatus; strain F14403, Cyp51 G54R
  MIC: 0.25 µg/mL (≈ 0.398 µM)
Aspergillus fumigatus; strain F14532, Cyp51 M220T
  MIC: 0.25 µg/mL (≈ 0.398 µM)
Aspergillus fumigatus; strain F16216, Cyp51 L98H + TR
  MIC: 0.25 µg/mL
[3]
  MIC: > 8 µg/mL
Lichteimia corymbiferea
  MIC: 4 µg/mL (≈ 6.37 µM)
Mucor circinelloides
  MIC: 4 µg/mL (≈ 6.37 µM)
Rhizopus delemar
  MIC: 4 µg/mL (≈ 6.37 µM)
Rhizopus oryzae
  MIC: > 8 µg/mL
Scedosporium spp.
  MIC: 0.5 µg/mL (≈ 0.797 µM)
C. auris [4]
  time-kill activity: Fungacidal activity was observed
C. albicans [5]
  time-kill activity: Fungacidal activity was observed
[6]; No. 2, DMSO (1% in PBS)
  Highest Turbmicin conc. Achieved: ≤0.5 mg/mL
[6]; No. 4, DMSO (10% in PBS)
  Highest Turbmicin conc. Achieved: 2 mg/mL
[6]; No. 5, PEG 400 (50% in PBS)
  Highest Turbmicin conc. Achieved: ≤0.5 mg/mL
[6]; No. 6, Kolliphor EL (10% in PBS)
  Highest Turbmicin conc. Achieved: ≤0.5 mg/mL
[6]; No. 7, Tween 80 (2% in PBS)
  Highest Turbmicin conc. Achieved: ≤0.5 mg/mL
[6]; aqueous with cosolvent or surfactant or cyclodextrin, mixtures of DMSO and water, read-out: concentration solubilized
  solubility: > 500 µg/mL
[6]; pH 7.4, aqueous buffer, No. 1, PBS, read-out: Highest Turbmicin conc. Achieved
  solubility: ≤ 500 µg/mL
[6]; pH 7.4, aqueous with cosolvent or surfactant or cyclodextrin, No. 3, DMSO (5% in PBS), read-out: Highest Turbmicin conc. Achieved
  solubility: ≤ 1000 µg/mL
[6]; water, read-out: water solubility
  solubility: < 500 µg/mL
